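48-hour exposure; five concentrations; linearly interpolated endpoints. The concentration for full growth arrest is given as TGI.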
How the values were obtained:
Assay in all cases: NCI tumour cell line growth inhibition, 48 h
EKVX NSCLC = system: EKVX NSCLC
SNB-78 CNS = system: SNB-78 CNS
SNB-19 CNS = system: SNB-19 CNS
IGROV1 ovarian = system: IGROV1 ovarian
NCI-H23 lung = system: NCI-H23 lung
MALME-3M melanoma = system: MALME-3M melanoma
A498 renal = system: A498 renal
U251 CNS = system: U251 CNS
SK-MEL-2 melanoma = system: SK-MEL-2 melanoma
ACHN renal = system: ACHN renal
SN12C renal = system: SN12C renal
NCI-H226 lung = system: NCI-H226 lung
OVCAR-4 ovarian = system: OVCAR-4 ovarian
SW-620 colon = system: SW-620 colon
DMS 273 small cell lung = system: DMS 273 small cell lung
DLD-1 colon = system: DLD-1 colon
KM12 colon = system: KM12 colon
HCT-116 colon = system: HCT-116 colon
KM20L2 colon = system: KM20L2 colon
HOP-92 NSCLC = system: HOP-92 NSCLC
RXF-631 renal = system: RXF-631 renal
UACC-257 melanoma = system: UACC-257 melanoma
M19-MEL melanoma = system: M19-MEL melanoma
A549 NSCLC = system: A549 NSCLC
XF 498 CNS = system: XF 498 CNS
LXFL 529 NSCLC = system: LXFL 529 NSCLC
RPMI-8226 leukemia = system: RPMI-8226 leukemia
RXF 393 renal = system: RXF 393 renal
SNB-75 CNS = system: SNB-75 CNS
SF-539 CNS = system: SF-539 CNS
SF-268 CNS = system: SF-268 CNS
OVCAR-8 ovarian = system: OVCAR-8 ovarian
HT29 colon = system: HT29 colon
MOLT-4 leukemia = system: MOLT-4 leukemia
SK-MEL-28 melanoma = system: SK-MEL-28 melanoma
M14 melanoma = system: M14 melanoma
TK-10 renal = system: TK-10 renal
SF-295 CNS = system: SF-295 CNS
CAKI-1 renal = system: CAKI-1 renal
UACC-62 melanoma = system: UACC-62 melanoma
786-0 renal = system: 786-0 renal
UO-31 renal = system: UO-31 renal
HOP-18 NSCLC = system: HOP-18 NSCLC
SK-MEL-5 melanoma = system: SK-MEL-5 melanoma
HCT-15 colon = system: HCT-15 colon
HOP-62 NSCLC = system: HOP-62 NSCLC
HL-60(TB) leukemia = system: HL-60(TB) leukemia
NCI-H522 lung = system: NCI-H522 lung
NCI-H460 lung = system: NCI-H460 lung
SR leukemia = system: SR leukemia
OVCAR-3 ovarian = system: OVCAR-3 ovarian
LOX IMVI melanoma = system: LOX IMVI melanoma
COLO 205 colon = system: COLO 205 colon
CCRF-CEM leukemia = system: CCRF-CEM leukemia
OVCAR-5 ovarian = system: OVCAR-5 ovarian
SK-OV-3 ovarian = system: SK-OV-3 ovarian
K-562 leukemia = system: K-562 leukemia
HCC-2998 colon = system: HCC-2998 colon
DMS 114 small cell lung = system: DMS 114 small cell lung

Which TGI (EKVX NSCLC) does the source give for `[O-][n+]1c2cc(CN3CCOCC3)c(CN3CCOCC3)cc2[n+]([O-])c2c(O)cccc21` here?
Its TGI is 20.2 µM.

What about the TGI (SNB-78 CNS) of the same molecule?
The TGI was 21.9 µM.

What about the TGI (SNB-19 CNS) of the same molecule?
Its TGI is > 40.8 µM.

And the TGI (IGROV1 ovarian)?
The TGI was 13 µM.

And the TGI (NCI-H23 lung)?
The TGI was 8.88 µM.

What about the TGI (MALME-3M melanoma) of the same molecule?
Its TGI is 25.3 µM.

What about the TGI (A498 renal) of the same molecule?
The TGI was 31.5 µM.

What about the TGI (U251 CNS) of the same molecule?
Its TGI is 7.09 µM.

And the TGI (SK-MEL-2 melanoma)?
The TGI was 12.1 µM.

And the TGI (ACHN renal)?
Its TGI is 26.3 µM.

What about the TGI (SN12C renal) of the same molecule?
The TGI was 13 µM.

And the TGI (NCI-H226 lung)?
Its TGI is 30.9 µM.

And the TGI (OVCAR-4 ovarian)?
Its TGI is 9.81 µM.

And the TGI (SW-620 colon)?
The TGI was 7.16 µM.

And the TGI (DMS 273 small cell lung)?
Its TGI is 15 µM.

And the TGI (DLD-1 colon)?
Its TGI is 6.8 µM.

What about the TGI (KM12 colon) of the same molecule?
Its TGI is 8.55 µM.

What about the TGI (HCT-116 colon) of the same molecule?
The TGI was 6.05 µM.

And the TGI (KM20L2 colon)?
The TGI was 15.4 µM.

What about the TGI (HOP-92 NSCLC) of the same molecule?
Its TGI is 10.4 µM.

And the TGI (RXF-631 renal)?
Its TGI is > 55.9 µM.

And the TGI (UACC-257 melanoma)?
The TGI was 16.3 µM.

And the TGI (M19-MEL melanoma)?
Its TGI is 8.83 µM.

And the TGI (A549 NSCLC)?
The TGI was > 25.3 µM.

What about the TGI (XF 498 CNS) of the same molecule?
Its TGI is 7.42 µM.

And the TGI (LXFL 529 NSCLC)?
Its TGI is 7.73 µM.

What about the TGI (RPMI-8226 leukemia) of the same molecule?
The TGI was 12.2 µM.

And the TGI (RXF 393 renal)?
The TGI was 5.11 µM.

What about the TGI (SNB-75 CNS) of the same molecule?
The TGI was 21.3 µM.

What about the TGI (SF-539 CNS) of the same molecule?
Its TGI is 2.82 µM.

And the TGI (SF-268 CNS)?
Its TGI is 3.6 µM.

What about the TGI (OVCAR-8 ovarian) of the same molecule?
Its TGI is 7.12 µM.

What about the TGI (HT29 colon) of the same molecule?
The TGI was 9.18 µM.

What about the TGI (MOLT-4 leukemia) of the same molecule?
Its TGI is 3.05 µM.

What about the TGI (SK-MEL-28 melanoma) of the same molecule?
The TGI was 32.5 µM.

What about the TGI (M14 melanoma) of the same molecule?
Its TGI is 13.2 µM.

And the TGI (TK-10 renal)?
Its TGI is > 42 µM.

And the TGI (SF-295 CNS)?
Its TGI is 2.16 µM.

What about the TGI (CAKI-1 renal) of the same molecule?
The TGI was > 23.9 µM.

What about the TGI (UACC-62 melanoma) of the same molecule?
Its TGI is 12.9 µM.

And the TGI (786-0 renal)?
The TGI was 6.03 µM.

And the TGI (UO-31 renal)?
Its TGI is 10.4 µM.

And the TGI (HOP-18 NSCLC)?
The TGI was 18.6 µM.

What about the TGI (SK-MEL-5 melanoma) of the same molecule?
Its TGI is > 37.9 µM.

And the TGI (HCT-15 colon)?
The TGI was 8.14 µM.

What about the TGI (HOP-62 NSCLC) of the same molecule?
The TGI was 15.8 µM.

What about the TGI (HL-60(TB) leukemia) of the same molecule?
Its TGI is 10.9 µM.

What about the TGI (NCI-H522 lung) of the same molecule?
Its TGI is 6.23 µM.

What about the TGI (NCI-H460 lung) of the same molecule?
Its TGI is 4.5 µM.

And the TGI (SR leukemia)?
The TGI was 0.701 µM.

What about the TGI (OVCAR-3 ovarian) of the same molecule?
Its TGI is 13 µM.

And the TGI (LOX IMVI melanoma)?
The TGI was 16.3 µM.

What about the TGI (COLO 205 colon) of the same molecule?
Its TGI is 11.1 µM.

And the TGI (CCRF-CEM leukemia)?
Its TGI is 4.02 µM.

What about the TGI (OVCAR-5 ovarian) of the same molecule?
The TGI was 15.2 µM.

And the TGI (SK-OV-3 ovarian)?
Its TGI is 13.5 µM.

Which results are given for `CC1=C(C(=O)Nc2ccccc2C)C(c2ccccc2C)C(C(=O)Nc2ccccc2C)=C(C)N1`?
TGI (EKVX NSCLC): 42.3 µM; TGI (SNB-78 CNS): > 100 µM; TGI (SNB-19 CNS): 56.9 µM; TGI (IGROV1 ovarian): 40.1 µM; TGI (NCI-H23 lung): 68.4 µM; TGI (MALME-3M melanoma): 38.2 µM; TGI (A498 renal): > 100 µM; TGI (U251 CNS): 40.3 µM; TGI (SK-MEL-2 melanoma): 38.8 µM; TGI (ACHN renal): 29.5 µM; TGI (SN12C renal): 35.8 µM; TGI (NCI-H226 lung): 46.9 µM; TGI (OVCAR-4 ovarian): 53.9 µM; TGI (SW-620 colon): 36.2 µM; TGI (K-562 leukemia): 69.3 µM; TGI (DLD-1 colon): 33.4 µM; TGI (KM12 colon): 37.8 µM; TGI (HCT-116 colon): 50.4 µM; TGI (KM20L2 colon): 38.9 µM; TGI (HOP-92 NSCLC): 29.4 µM; TGI (RXF-631 renal): > 100 µM; TGI (UACC-257 melanoma): 72.6 µM; TGI (M19-MEL melanoma): 66.7 µM; TGI (A549 NSCLC): > 100 µM; TGI (XF 498 CNS): 39.2 µM; TGI (LXFL 529 NSCLC): > 10 µM; TGI (HCC-2998 colon): 36.4 µM; TGI (RPMI-8226 leukemia): 81.3 µM; TGI (RXF 393 renal): 26.2 µM; TGI (SNB-75 CNS): 59.2 µM; TGI (SF-539 CNS): > 10 µM; TGI (SF-268 CNS): 69.5 µM; TGI (OVCAR-8 ovarian): 36.8 µM; TGI (HT29 colon): 43 µM; TGI (DMS 114 small cell lung): > 100 µM; TGI (MOLT-4 leukemia): > 10 µM; TGI (SK-MEL-28 melanoma): 42.5 µM; TGI (TK-10 renal): 64.4 µM; TGI (SF-295 CNS): 44.2 µM; TGI (786-0 renal): 34.5 µM; TGI (UO-31 renal): 30.2 µM; TGI (HOP-18 NSCLC): 37 µM; TGI (HCT-15 colon): 40.3 µM; TGI (HOP-62 NSCLC): 62.8 µM; TGI (HL-60(TB) leukemia): 46.5 µM; TGI (NCI-H522 lung): 29.9 µM; TGI (NCI-H460 lung): 53.9 µM; TGI (SR leukemia): 65.4 µM; TGI (OVCAR-3 ovarian): 34.7 µM; TGI (LOX IMVI melanoma): 30.3 µM; TGI (COLO 205 colon): 62.5 µM; TGI (OVCAR-5 ovarian): 66.3 µM

From PubChem BioAssay (NCI)
